Source: the kinase profiling compilation of Christmann-Franck et al. (2016)

Key:
Experiment in all cases: KINOMEscan competition binding
[1] = target: EPHA8 (human) (UniProt P29322)
[2] = target: EPHA6 (human) (UniProt Q9UF33)
[3] = target: ERN1 (human) (UniProt O75460)
[4] = target: FLT3 (human), P36888 [ITD]
[5] = target: STK36 (human) (UniProt Q9NRP7)
[6] = target: HIPK3 (human) (UniProt Q9H422)
[7] = target: CHEK2 (human) (UniProt O96017)
[8] = target: PI4KB (human) (UniProt Q9UBF8)
[9] = target: MAPK11 (human) (UniProt Q15759)
[10] = target: PRKCD (human) (UniProt Q05655)
[11] = target: PRKAA2 (human) (UniProt P54646)
[12] = target: EIF2AK4 KD2 (human), Q9P2K8 [S808G]
[13] = target: PRKD2 (human) (UniProt Q9BZL6)
[14] = target: CDKL5 (human) (UniProt O76039)
[15] = target: ABL1 (human), P00519 [M351T]
[16] = target: MAP3K9 (human) (UniProt P80192)
[17] = target: ERBB2 (human) (UniProt P04626)
[18] = target: PIM2 (human) (UniProt Q9P1W9)
Sequence of PIM2 (human) (Q9P1W9 whole entry, looked up): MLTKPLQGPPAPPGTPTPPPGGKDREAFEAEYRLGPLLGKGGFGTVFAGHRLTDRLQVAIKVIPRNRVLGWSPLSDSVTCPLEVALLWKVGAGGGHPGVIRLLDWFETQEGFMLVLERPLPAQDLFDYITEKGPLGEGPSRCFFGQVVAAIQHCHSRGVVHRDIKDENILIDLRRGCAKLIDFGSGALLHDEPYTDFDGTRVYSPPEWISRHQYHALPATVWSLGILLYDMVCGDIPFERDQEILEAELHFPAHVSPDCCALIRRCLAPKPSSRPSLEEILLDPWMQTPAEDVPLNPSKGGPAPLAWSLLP

[19] = target: FLT4 (human) (UniProt P35916)
[20] = target: MAP4K2 (human) (UniProt Q12851)
[21] = target: NEK5 (human) (UniProt Q6P3R8)
Sequence of NEK5 (human) (Q6P3R8 whole entry, looked up): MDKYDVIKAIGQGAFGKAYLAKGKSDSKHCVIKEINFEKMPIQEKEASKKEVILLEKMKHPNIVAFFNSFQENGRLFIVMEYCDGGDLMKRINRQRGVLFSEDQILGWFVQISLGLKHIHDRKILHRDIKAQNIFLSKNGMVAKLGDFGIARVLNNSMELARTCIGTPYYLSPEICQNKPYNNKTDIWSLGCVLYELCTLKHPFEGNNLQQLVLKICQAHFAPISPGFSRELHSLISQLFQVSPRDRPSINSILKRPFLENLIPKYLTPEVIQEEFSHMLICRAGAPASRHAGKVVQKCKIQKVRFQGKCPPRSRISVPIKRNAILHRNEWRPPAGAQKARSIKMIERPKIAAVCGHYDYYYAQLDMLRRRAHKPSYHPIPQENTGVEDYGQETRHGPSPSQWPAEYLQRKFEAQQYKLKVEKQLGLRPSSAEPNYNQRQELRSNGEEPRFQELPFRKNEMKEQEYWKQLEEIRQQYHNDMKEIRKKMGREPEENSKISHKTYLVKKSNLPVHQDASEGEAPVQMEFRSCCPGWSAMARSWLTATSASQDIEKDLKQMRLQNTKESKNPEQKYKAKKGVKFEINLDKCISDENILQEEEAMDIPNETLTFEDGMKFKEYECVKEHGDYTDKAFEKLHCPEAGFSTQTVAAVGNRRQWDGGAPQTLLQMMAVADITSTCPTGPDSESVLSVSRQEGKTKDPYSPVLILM

[22] = target: TAOK2 (human) (UniProt Q9UL54)
[23] = target: FLT3 (human) (UniProt P36888)
Sequence of FLT3 (human) (P36888 whole entry, looked up): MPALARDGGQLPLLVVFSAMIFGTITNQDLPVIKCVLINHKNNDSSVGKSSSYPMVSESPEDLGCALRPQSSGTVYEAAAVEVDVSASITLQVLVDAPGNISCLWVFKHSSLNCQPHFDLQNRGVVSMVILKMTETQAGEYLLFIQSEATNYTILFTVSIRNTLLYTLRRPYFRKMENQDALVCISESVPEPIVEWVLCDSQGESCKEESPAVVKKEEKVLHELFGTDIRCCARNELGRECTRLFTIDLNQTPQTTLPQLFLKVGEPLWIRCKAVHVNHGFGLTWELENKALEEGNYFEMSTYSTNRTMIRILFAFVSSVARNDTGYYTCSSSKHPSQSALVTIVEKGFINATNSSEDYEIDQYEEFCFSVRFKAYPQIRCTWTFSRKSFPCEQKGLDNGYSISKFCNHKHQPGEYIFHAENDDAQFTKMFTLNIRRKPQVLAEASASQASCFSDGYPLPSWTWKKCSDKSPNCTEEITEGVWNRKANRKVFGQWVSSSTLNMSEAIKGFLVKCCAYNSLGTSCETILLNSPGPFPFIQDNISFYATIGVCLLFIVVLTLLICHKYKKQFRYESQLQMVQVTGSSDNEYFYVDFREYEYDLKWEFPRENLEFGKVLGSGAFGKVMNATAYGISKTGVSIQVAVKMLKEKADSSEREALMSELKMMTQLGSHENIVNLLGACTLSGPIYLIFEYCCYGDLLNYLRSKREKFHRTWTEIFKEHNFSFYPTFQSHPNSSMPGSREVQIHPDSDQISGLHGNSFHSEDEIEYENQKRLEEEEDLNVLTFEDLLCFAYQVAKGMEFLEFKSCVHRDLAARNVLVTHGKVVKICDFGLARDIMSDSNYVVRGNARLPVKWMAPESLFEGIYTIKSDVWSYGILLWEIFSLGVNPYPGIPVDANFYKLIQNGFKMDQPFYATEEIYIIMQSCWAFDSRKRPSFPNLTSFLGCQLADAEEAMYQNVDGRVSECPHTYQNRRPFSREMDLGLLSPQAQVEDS

[24] = target: DDR1 (human) (UniProt Q08345)
Sequence of DDR1 (human) (Q08345 whole entry, looked up): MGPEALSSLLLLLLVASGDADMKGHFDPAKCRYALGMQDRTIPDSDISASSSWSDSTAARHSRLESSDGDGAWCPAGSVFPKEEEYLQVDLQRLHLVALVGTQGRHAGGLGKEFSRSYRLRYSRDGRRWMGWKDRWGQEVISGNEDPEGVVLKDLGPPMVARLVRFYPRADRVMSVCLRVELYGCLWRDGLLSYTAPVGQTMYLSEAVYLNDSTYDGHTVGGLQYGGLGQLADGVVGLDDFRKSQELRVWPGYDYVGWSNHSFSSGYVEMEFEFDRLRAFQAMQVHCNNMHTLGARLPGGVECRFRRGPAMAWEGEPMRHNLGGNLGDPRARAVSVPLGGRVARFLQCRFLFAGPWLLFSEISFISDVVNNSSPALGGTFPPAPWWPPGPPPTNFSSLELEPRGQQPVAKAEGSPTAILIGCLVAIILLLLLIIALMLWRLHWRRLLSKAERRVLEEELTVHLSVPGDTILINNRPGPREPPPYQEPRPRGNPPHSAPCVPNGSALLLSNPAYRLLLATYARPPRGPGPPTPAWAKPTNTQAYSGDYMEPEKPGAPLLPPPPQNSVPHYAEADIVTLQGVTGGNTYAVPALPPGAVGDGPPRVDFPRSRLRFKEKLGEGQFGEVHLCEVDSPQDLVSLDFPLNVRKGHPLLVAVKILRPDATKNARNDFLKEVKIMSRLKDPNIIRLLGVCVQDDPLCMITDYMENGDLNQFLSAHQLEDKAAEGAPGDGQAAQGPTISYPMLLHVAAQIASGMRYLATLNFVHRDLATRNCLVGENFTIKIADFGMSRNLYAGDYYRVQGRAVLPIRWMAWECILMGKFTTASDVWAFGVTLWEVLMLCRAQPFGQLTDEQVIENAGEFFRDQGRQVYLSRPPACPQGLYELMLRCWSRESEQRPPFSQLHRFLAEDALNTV

[25] = target: ABL1 (human), P00519 [H396P]

Sequence of FLT3 (human), P36888 [ITD] (P36888 whole entry, looked up, change not shown): as the sequence (P36888 whole entry, looked up) above
Sequence of ERN1 (human) (O75460 whole entry, looked up): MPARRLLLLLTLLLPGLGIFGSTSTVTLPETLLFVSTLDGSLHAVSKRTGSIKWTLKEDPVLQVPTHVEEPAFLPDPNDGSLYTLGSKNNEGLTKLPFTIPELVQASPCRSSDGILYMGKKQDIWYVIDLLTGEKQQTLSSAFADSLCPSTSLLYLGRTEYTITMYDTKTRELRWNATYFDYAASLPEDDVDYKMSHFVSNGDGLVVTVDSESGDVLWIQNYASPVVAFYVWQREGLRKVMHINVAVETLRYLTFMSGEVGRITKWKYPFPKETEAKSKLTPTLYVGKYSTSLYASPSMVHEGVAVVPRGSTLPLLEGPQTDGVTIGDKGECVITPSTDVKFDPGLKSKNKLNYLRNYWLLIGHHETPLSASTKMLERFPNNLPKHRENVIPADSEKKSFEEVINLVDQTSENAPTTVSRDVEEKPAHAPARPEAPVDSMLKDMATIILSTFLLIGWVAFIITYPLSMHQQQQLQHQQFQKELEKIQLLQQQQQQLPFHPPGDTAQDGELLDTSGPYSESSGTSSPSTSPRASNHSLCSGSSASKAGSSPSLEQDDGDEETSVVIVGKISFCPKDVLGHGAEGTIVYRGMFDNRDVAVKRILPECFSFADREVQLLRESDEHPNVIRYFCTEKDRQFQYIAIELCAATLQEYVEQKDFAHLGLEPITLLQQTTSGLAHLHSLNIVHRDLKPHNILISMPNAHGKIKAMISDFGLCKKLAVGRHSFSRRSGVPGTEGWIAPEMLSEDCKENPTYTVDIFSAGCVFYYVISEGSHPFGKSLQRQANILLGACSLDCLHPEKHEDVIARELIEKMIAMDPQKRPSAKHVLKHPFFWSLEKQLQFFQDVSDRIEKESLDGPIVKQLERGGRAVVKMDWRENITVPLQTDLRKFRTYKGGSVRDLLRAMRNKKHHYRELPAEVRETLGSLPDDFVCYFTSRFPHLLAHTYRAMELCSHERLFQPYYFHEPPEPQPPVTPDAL
Sequence of EPHA8 (human) (P29322 whole entry, looked up): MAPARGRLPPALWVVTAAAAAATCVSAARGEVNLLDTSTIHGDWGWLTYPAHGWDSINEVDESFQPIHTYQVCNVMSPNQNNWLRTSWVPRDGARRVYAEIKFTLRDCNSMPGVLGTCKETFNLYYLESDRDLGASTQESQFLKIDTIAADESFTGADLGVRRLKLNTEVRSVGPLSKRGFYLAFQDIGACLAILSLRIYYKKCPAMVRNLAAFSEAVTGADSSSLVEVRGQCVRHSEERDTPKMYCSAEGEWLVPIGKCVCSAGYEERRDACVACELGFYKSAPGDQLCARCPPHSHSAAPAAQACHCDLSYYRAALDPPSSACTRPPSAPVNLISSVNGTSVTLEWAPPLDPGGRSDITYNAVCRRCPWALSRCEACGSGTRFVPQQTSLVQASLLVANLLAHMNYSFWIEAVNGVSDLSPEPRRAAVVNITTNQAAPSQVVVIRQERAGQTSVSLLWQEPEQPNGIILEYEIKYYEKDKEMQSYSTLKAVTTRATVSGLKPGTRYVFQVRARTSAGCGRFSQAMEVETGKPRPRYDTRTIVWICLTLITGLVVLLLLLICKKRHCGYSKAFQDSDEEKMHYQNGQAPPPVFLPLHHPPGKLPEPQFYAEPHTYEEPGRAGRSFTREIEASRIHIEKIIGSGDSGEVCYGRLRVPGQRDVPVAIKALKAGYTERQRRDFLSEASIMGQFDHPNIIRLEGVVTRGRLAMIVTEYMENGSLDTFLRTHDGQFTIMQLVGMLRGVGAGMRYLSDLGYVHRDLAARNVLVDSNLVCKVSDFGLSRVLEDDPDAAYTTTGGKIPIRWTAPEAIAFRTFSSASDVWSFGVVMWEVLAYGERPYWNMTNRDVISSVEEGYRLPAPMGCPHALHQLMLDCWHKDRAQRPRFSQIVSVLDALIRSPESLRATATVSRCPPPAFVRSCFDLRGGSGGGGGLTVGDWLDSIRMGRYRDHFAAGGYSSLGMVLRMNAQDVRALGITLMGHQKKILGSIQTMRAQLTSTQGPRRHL

- Kd [1]: 14 nM
- Kd [2]: 5.5 nM
- Kd [3]: 19 µM
- Kd [4]: 22 nM
- Kd [5]: 4.7 µM
- Kd [6]: 120 nM
- Kd [7]: 8.7 µM
- Kd [8]: 29 µM
- Kd [9]: 15 nM
- Kd [10]: 1200 nM
- Kd [11]: 28 µM
- Kd [12]: 4.4 µM
- Kd [13]: 19 µM
- Kd [14]: 92 nM
- Kd [15]: 3.2 nM
- Kd [16]: 1500 nM
- Kd [17]: 240 nM
- Kd [18]: 26 µM
- Kd [19]: 9.3 nM
- Kd [20]: 980 nM
- Kd [21]: 28 µM
- Kd [22]: 1600 nM
- Kd [23]: 4.2 nM
- Kd [24]: 0.6 nM
- Kd [25]: 11 nM
SMILES: COc1cc2ncnc(Oc3cccc(NC(=O)Nc4cc(C(C)(C)C(F)(F)F)on4)c3)c2cc1OC
